Source: ChEMBL document CHEMBL1926671, “3D-Quantitative structure-activity relationship and docking studies of the tachykinin NK3 receptor” (Bioorg Med Chem Lett, 2011)
pKi: −log10 of the molar value.

Target: T1, Neuromedin-K receptor (Homo sapiens, UniProt P29371)
T1 sequence (P29371 whole entry): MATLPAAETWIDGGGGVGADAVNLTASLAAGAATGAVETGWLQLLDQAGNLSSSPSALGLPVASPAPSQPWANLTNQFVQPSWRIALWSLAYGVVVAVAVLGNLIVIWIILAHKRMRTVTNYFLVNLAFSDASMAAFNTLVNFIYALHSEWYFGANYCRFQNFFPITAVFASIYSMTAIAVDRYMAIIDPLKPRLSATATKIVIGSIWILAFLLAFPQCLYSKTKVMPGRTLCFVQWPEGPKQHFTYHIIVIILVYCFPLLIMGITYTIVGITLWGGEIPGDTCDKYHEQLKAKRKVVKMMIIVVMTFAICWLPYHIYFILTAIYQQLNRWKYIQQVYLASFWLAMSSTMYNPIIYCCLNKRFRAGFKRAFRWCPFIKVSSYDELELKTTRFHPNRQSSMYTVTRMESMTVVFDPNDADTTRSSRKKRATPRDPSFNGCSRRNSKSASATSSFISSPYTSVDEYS
Test: Binding affinity to human NK3 receptor expressed in CHO cells
Assay type: cell-based

pKi: 6.80
SMILES: CCCCC(NC(=O)c1cc(-c2ccccc2)nc2ccccc12)c1ccccc1 (stereo unspecified)
